{"source": "patent US20130189186A1", "about": "“APOPTOSIS IMAGING AGENTS BASED ON LANTIBIOTIC PEPTIDES” (GE HEALTHCARE LIMITED, priority 2010, published 2013)", "tested_on": "phosphatidyl ethanolamine", "assay": "Biacore affinity for phosphatidyl ethanolamine (POPE/POPC liposomes captured on L1 chip)", "type": "binding", "conditions": "Biacore 3000, L1 chip, POPE/POPC liposomes (20% PE)", "text": "A Biacore 3000 (GE Healthcare, Uppsala) was equipped with an L1 chip. Liposomes made of POPE/POPC (20% PE) were applied for the affinity study using the capture technique recommended by the manufacturer. Each run consisted of activation of the chip surface, immobilization of liposomes, binding of peptide and wash off of both liposomes and peptide (regeneration). Similar applications can be found in Frostell-Karlsson et al [Pharm. Sciences, V.94 (1), (2005)]. Thorough washing of needle, tubing and liquid handling system with running buffer was performed after each cycle.\nBIACORE software: The BIACORE control software including all method instructions was applied. A method with commands was also written in the BIACORE Method Definition Language (MDL) to have full control over pre-programmed instructions. BIACORE evaluation software was applied for analysing the sensorgrams.", "data": [{"substance": "Duramycin", "values": [{"measurement": "ka", "result": "~20000", "unit": "M⁻¹ s⁻¹"}]}]}
